Measurements published in publication PMC7026418, “The kinase polypharmacology landscape of clinical PARP inhibitors” (Scientific Reports, 2020).
Read-outs that look alike come from different tables or passages of the source.

What was measured:
Experiment in all cases: biochemical
Parameters in all cases: DiscoveRx KINOMEscan active site-directed competition binding; percent of control kinase bound to immobilised ligand
CLK2 = CLK2 (Homo sapiens, UniProt P49760)
CSNK1D = CSNK1D (Homo sapiens, UniProt P48730)
Chain of CSNK1D (P48730 whole entry): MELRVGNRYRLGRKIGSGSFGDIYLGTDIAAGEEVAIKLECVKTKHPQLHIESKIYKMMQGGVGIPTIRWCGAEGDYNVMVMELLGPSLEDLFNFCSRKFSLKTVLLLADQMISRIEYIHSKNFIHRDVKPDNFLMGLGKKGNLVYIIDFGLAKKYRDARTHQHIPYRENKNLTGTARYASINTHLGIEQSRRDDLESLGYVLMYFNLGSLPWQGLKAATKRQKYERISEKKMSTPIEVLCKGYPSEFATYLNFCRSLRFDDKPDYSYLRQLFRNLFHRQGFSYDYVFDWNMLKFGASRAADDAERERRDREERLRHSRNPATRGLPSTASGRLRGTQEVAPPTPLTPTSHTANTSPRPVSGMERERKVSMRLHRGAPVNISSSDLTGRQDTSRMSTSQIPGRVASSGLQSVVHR

CDK11 = target: T1, CDK11 (Homo sapiens, UniProt Q9BWU1)
T1 construct: gene CDK19

PRKX = target: T2, PRKX (Homo sapiens, UniProt P51817)
T2 sequence (P51817 1-358): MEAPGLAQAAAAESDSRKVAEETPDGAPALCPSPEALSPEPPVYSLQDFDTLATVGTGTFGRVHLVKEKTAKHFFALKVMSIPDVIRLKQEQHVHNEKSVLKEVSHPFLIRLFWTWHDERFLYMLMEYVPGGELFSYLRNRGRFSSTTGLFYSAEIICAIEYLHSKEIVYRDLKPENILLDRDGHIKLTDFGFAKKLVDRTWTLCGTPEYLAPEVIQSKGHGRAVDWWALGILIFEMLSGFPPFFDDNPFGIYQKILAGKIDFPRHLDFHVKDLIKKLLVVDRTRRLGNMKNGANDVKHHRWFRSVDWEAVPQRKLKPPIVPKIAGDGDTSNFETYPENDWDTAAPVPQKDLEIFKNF

MAP3K4 = MAP3K4 (Homo sapiens, UniProt Q9Y6R4)
Chain of MAP3K4 (Q9Y6R4 whole entry): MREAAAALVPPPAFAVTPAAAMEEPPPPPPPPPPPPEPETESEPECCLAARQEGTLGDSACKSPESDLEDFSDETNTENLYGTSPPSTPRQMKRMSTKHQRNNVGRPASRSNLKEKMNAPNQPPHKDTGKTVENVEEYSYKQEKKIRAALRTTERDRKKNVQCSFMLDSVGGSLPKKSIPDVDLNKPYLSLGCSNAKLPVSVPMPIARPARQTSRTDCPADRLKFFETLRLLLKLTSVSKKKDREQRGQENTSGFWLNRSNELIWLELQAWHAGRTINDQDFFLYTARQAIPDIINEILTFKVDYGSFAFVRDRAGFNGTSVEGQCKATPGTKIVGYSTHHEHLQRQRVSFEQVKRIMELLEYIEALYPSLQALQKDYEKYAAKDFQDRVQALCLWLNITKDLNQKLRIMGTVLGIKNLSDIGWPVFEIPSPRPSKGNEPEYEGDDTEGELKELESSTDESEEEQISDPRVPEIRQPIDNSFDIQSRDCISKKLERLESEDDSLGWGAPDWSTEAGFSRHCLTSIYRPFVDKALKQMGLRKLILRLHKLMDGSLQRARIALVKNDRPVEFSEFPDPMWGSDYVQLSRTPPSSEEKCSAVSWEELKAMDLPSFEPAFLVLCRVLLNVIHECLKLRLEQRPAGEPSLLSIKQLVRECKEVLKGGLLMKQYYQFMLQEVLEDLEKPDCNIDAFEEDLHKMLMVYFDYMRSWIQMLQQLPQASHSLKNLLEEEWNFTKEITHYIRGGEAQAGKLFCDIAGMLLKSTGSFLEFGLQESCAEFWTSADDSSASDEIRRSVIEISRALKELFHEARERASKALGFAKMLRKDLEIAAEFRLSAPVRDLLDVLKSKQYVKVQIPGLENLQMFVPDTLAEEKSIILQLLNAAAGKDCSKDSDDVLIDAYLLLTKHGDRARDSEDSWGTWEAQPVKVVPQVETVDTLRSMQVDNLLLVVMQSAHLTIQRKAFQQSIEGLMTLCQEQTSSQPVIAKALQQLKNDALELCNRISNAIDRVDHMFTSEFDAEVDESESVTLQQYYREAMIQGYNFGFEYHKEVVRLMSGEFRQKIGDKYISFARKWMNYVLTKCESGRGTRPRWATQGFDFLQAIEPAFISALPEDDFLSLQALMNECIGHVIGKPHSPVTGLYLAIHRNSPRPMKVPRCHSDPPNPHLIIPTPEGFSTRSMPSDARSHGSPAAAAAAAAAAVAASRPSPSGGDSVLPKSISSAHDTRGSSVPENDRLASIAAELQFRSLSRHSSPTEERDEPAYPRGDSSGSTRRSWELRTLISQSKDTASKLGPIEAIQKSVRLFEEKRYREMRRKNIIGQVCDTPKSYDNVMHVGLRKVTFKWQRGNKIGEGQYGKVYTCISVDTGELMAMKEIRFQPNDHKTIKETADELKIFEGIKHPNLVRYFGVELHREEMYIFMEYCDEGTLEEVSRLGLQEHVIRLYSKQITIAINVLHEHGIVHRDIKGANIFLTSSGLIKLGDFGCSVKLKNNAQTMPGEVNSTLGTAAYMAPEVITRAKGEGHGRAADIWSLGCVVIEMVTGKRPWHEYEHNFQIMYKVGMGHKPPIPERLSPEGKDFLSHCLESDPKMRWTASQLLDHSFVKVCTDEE

TEC = target: T3, TEC (Homo sapiens, UniProt P42680)
T3 sequence (P42680 1-631): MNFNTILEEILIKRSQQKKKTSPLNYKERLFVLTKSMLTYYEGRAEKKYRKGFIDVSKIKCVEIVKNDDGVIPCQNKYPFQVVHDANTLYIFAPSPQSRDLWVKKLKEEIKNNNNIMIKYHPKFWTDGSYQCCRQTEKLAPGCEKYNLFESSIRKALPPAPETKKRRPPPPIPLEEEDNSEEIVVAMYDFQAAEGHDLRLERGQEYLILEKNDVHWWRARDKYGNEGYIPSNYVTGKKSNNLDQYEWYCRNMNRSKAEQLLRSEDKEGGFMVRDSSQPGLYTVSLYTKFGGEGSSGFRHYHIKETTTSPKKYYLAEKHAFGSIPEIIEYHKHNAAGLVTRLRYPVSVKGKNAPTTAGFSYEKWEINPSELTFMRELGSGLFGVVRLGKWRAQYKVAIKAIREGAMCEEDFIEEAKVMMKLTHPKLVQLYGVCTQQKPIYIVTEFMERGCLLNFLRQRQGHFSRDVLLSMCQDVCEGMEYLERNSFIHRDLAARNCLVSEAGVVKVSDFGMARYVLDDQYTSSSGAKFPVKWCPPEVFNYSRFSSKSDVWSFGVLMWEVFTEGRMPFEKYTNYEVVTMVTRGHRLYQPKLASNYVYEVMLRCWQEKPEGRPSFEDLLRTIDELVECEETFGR

KIT(V559D) = KIT(V559D) (Homo sapiens, UniProt P10721, V559D)
SBK1 = SBK1 (Homo sapiens, UniProt Q52WX2)
AURKC = target: T4, AURKC (Homo sapiens, UniProt Q9UQB9)
T4 sequence (Q9UQB9 1-309): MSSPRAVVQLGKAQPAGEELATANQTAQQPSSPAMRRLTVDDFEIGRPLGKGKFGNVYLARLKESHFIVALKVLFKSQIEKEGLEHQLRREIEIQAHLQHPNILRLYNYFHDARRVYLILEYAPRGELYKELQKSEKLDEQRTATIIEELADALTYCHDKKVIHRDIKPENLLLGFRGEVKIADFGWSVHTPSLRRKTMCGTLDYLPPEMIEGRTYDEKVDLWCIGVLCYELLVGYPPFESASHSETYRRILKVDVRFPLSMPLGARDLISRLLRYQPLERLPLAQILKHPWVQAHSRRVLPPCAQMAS

ALK(L1196M) = ALK(L1196M) (Homo sapiens, UniProt Q9UM73, L1196M)
KIT(V559D,T670I) = KIT(V559D,T670I) (Homo sapiens, UniProt P10721, T670I/V559D)
NEK7 = NEK7 (Homo sapiens, UniProt Q8TDX7)
LIMK1 = LIMK1 (Homo sapiens, UniProt P53667)
[1] = target: T5, ABL1(F317I)-phosphorylated (Homo sapiens, UniProt P00519, F317I)
T5 construct: phosphorylated

LRRK2(G2019S) = LRRK2(G2019S) (Homo sapiens, UniProt Q5S007, G2019S)
Chain of LRRK2(G2019S) (Q5S007 whole entry G2019S): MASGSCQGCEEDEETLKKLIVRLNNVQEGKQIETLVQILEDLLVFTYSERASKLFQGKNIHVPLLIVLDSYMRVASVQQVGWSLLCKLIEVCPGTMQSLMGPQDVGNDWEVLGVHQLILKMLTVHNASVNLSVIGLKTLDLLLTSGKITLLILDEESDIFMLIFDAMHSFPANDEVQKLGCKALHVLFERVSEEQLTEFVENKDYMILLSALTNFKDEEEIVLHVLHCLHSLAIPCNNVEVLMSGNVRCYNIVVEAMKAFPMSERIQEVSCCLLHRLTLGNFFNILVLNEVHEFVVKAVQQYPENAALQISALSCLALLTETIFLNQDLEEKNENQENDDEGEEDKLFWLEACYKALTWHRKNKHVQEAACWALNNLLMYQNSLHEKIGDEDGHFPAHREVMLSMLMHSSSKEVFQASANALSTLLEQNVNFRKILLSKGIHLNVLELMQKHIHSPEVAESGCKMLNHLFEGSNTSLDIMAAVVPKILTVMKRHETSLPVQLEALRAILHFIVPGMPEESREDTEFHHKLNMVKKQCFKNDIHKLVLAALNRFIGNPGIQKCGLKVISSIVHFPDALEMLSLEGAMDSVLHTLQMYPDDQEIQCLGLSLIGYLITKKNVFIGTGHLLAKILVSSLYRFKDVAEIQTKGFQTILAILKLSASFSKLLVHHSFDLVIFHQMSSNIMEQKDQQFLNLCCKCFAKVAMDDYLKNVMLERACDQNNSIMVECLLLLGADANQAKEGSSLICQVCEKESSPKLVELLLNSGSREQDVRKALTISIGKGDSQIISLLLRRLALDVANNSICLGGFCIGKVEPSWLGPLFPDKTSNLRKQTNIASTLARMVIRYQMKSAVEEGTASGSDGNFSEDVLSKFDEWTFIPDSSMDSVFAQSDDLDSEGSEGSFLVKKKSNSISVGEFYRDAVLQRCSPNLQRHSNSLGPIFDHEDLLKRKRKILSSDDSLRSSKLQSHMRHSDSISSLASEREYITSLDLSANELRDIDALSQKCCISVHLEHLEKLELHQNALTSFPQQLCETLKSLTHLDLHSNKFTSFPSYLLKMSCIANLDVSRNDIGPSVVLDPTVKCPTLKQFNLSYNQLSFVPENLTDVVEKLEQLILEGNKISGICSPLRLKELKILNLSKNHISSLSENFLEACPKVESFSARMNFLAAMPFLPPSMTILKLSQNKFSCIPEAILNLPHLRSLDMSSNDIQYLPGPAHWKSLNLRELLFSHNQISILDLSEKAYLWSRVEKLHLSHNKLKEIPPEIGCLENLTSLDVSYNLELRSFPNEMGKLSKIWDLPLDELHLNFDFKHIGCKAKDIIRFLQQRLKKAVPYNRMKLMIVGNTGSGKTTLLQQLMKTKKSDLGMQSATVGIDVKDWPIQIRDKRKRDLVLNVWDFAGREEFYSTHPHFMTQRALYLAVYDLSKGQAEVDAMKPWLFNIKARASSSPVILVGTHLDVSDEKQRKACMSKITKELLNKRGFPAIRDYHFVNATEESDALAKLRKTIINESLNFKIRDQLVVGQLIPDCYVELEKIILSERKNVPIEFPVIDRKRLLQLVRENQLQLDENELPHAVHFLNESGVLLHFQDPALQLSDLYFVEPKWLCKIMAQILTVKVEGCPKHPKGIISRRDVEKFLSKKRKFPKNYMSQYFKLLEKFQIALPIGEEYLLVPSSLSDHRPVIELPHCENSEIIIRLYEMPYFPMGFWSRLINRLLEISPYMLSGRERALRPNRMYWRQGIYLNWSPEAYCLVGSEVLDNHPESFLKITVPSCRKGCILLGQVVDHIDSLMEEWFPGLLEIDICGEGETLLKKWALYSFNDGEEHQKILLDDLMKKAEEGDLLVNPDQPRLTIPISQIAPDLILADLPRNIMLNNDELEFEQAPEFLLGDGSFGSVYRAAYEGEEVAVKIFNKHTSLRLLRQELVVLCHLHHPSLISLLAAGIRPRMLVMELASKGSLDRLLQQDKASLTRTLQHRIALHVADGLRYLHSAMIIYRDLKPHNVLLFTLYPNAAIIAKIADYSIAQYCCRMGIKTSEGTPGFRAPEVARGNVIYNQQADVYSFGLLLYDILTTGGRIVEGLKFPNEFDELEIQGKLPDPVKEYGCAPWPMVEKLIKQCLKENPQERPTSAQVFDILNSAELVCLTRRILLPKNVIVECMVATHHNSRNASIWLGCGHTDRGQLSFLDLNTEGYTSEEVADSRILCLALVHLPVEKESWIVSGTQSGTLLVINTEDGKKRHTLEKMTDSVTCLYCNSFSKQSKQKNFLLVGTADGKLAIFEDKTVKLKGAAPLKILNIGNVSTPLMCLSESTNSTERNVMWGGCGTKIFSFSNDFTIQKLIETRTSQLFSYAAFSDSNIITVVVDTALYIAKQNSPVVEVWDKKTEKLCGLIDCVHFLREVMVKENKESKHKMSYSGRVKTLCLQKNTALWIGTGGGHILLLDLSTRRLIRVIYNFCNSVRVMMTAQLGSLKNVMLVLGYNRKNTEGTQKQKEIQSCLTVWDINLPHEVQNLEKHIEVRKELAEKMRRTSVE

[2] = read-out: Talazoparib (BMN 673) / %Ctrl @ 10000nM
[3] = read-out: Olaparib / %Ctrl @ 10000nM
[4] = read-out: Rucaparib / %Ctrl @ 10000nM, binding competition, % of control
[5] = read-out: Niraparib (MK-4827) / %Ctrl @ 10000nM

Chain of CLK2 (P49760 whole entry): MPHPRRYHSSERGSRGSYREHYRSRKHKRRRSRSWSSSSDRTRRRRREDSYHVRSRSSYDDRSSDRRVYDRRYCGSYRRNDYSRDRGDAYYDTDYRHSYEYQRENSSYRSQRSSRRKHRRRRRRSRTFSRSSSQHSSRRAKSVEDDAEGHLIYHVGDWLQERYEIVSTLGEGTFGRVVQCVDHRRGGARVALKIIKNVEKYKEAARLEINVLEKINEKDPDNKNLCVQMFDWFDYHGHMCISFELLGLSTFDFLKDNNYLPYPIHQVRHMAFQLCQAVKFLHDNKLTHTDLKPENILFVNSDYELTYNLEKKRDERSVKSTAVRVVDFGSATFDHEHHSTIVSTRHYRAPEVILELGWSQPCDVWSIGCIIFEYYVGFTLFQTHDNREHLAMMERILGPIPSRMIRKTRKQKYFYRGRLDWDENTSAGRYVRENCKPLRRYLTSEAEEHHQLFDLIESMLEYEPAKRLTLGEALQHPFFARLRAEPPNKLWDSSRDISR

SMILES: Cn1ncnc1[C@H]1c2n[nH]c(=O)c3cc(F)cc(c23)N[C@@H]1c1ccc(F)cc1 [Talazoparib]
- percent of control binding at 10 µM (CLK2; [2]): 94%
- percent of control binding at 10 µM (CSNK1D; [2]): 100%
- percent of control binding at 10 µM (CDK11; [2]): 93%
- percent of control binding at 10 µM (PRKX; [2]): 94%
- percent of control binding at 10 µM (MAP3K4; [2]): 90%
- percent of control binding at 10 µM (TEC; [2]): 92%
- percent of control binding at 10 µM (KIT(V559D); [2]): 100%
- percent of control binding at 10 µM (SBK1; [2]): 96%
- percent of control binding at 10 µM (AURKC; [2]): 100%
- percent of control binding at 10 µM (ALK(L1196M); [2]): 100%
- percent of control binding at 10 µM (KIT(V559D,T670I); [2]): 100%
- percent of control binding at 10 µM (NEK7; [2]): 80%
- percent of control binding at 10 µM (LIMK1; [2]): 99%
- percent of control binding at 10 µM [1, 2]: 99%
- percent of control binding at 10 µM (LRRK2(G2019S); [2]): 100%

SMILES: O=C(c1cc(Cc2n[nH]c(=O)c3ccccc23)ccc1F)N1CCN(C(=O)C2CC2)CC1 [Olaparib]
- percent of control binding at 10 µM (CLK2; [3]): 100%
- percent of control binding at 10 µM (CSNK1D; [3]): 96%
- percent of control binding at 10 µM (CDK11; [3]): 85%
- percent of control binding at 10 µM (PRKX; [3]): 88%
- percent of control binding at 10 µM (MAP3K4; [3]): 100%
- percent of control binding at 10 µM (TEC; [3]): 100%
- percent of control binding at 10 µM (KIT(V559D); [3]): 100%
- percent of control binding at 10 µM (SBK1; [3]): 95%
- percent of control binding at 10 µM (AURKC; [3]): 97%
- percent of control binding at 10 µM (ALK(L1196M); [3]): 83%
- percent of control binding at 10 µM (KIT(V559D,T670I); [3]): 92%
- percent of control binding at 10 µM (NEK7; [3]): 98%
- percent of control binding at 10 µM (LIMK1; [3]): 100%
- percent of control binding at 10 µM [1, 3]: 86%
- percent of control binding at 10 µM (LRRK2(G2019S); [3]): 84%

SMILES: CNCc1ccc(-c2[nH]c3cc(F)cc4c3c2CCNC4=O)cc1 [Rucaparib]
- percent of control binding at 10 µM (CLK2; [4]): 32%
- percent of control binding at 10 µM (CSNK1D; [4]): 63%
- percent of control binding at 10 µM (CDK11; [4]): 94%
- percent of control binding at 10 µM (PRKX; [4]): 92%
- percent of control binding at 10 µM (MAP3K4; [4]): 100%
- percent of control binding at 10 µM (TEC; [4]): 100%
- percent of control binding at 10 µM (KIT(V559D); [4]): 92%
- percent of control binding at 10 µM (SBK1; [4]): 65%
- percent of control binding at 10 µM (AURKC; [4]): 78%
- percent of control binding at 10 µM (ALK(L1196M); [4]): 83%
- percent of control binding at 10 µM (KIT(V559D,T670I); [4]): 91%
- percent of control binding at 10 µM (NEK7; [4]): 100%
- percent of control binding at 10 µM (LIMK1; [4]): 100%
- percent of control binding at 10 µM [1, 4]: 92%
- percent of control binding at 10 µM (LRRK2(G2019S); [4]): 87%

SMILES: NC(=O)c1cccc2cn(-c3ccc([C@@H]4CCCNC4)cc3)nc12 [Niraparib]
- percent of control binding at 10 µM (CLK2; [5]): 36%
- percent of control binding at 10 µM (CSNK1D; [5]): 57%
- percent of control binding at 10 µM (CDK11; [5]): 93%
- percent of control binding at 10 µM (PRKX; [5]): 96%
- percent of control binding at 10 µM (MAP3K4; [5]): 94%
- percent of control binding at 10 µM (TEC; [5]): 76%
- percent of control binding at 10 µM (KIT(V559D); [5]): 90%
- percent of control binding at 10 µM (SBK1; [5]): 83%
- percent of control binding at 10 µM (AURKC; [5]): 56%
- percent of control binding at 10 µM (ALK(L1196M); [5]): 81%
- percent of control binding at 10 µM (KIT(V559D,T670I); [5]): 97%
- percent of control binding at 10 µM (NEK7; [5]): 88%
- percent of control binding at 10 µM (LIMK1; [5]): 82%
- percent of control binding at 10 µM [1, 5]: 89%
- percent of control binding at 10 µM (LRRK2(G2019S); [5]): 89%
